Changes are numbered by the printed parent chain. Where two headings read alike, the source gives them in different places. A value given as a limit tells only on which side of the number the result lay.

Test [1] has as its target T1, Grb2 SH2 domain (Homo sapiens, UniProt P62993). Set-up: method as in earlier work. The following applies: SH2 protein microarray; N.B. = non binding; read-out: Protein Microarray (Macbeath) – KD; cited from earlier work.
A further test has as its target T2, Abl2 SH2 domain (Homo sapiens, UniProt P42684).
T2 sequence (P42684 173-263 limits assumed): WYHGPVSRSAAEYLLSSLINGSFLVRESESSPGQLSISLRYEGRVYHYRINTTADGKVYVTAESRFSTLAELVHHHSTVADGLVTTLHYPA
Set-up: method as in earlier work. The following applies: SH2 protein microarray; N.B. = non binding; read-out: Protein Microarray (Macbeath) – KD; cited from earlier work.

The next test concerns the target T3, Abl1 SH2 domain (Homo sapiens, UniProt P00519).
T3 sequence (P00519 127-217 limits assumed): T2 sequence (P42684 173-263 limits assumed) with S9N, L18G, L35R, T53A, A54S, V58L, T61S, A62S, S67N, V84I
Set-up: method as in earlier work. The following applies: SH2 protein microarray; N.B. = non binding; read-out: Protein Microarray (Macbeath) – KD; cited from earlier work.

Test [2] deals with T4, CrkL SH2 domain (Homo sapiens, UniProt P46109). Set-up: method as in earlier work. Conditions: SH2 protein microarray; N.B. = non binding; read-out: Protein Microarray (Macbeath) – KD; cited from earlier work.
T4 sequence (P46109 14-102 limits assumed): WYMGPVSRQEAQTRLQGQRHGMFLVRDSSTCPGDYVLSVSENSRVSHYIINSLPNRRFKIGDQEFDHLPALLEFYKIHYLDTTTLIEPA
For the next test, the target named is PI3K1_N SH2 domain (Homo sapiens, UniProt P27986). Put plainly: Fluorescence polarization solution binding. The following applies: Rhodamine B-labeled peptide, GST-SH2, Beacon 2000, read-out: Affinity (KD). The source says:
(§1) To verify the binding results obtained from addressable peptide arrays we employed an orthogonal method of determining SH2 interactions with peptide ligands. We measured the dissociation constants of 60 binary SH2-peptide pairs in solution by fluorescence polarization (Table 2, Additional file 2: Figures S3A-C).
(§2) Peptides were synthesized using FMOC-chemistry onto pre-loaded tenta-gel resins. Peptides were then labeled with Rhodamine B (Abbey Color) and then cleaved using trifluoroacetic acid. Peptides were lyophilized and then purified using a LC/MS (Agilent 2100). Dissociation constants were measured using the Beacon 2000 (Invitrogen) as previously described.
(§3) Binding Affinities determined by Fluorescence Polarization. Rhodamine B-labeled peptides were mixed with varying concentrations of GST-tagged SH2 domains. Fluorescence polarization measurements were read on a Beacon 2000 (Invitrogen). The curves were fit to a Michaelis-Menten equation to calculate the dissociation constant, KD. […] (C) Affinity measurements that fell below the 2X mean intensity and were considered array negative on the SPOT array.
(In general: Polarisation of emitted light reports the rotation of a fluorescent probe.)

For test [3], the target named is T1, Grb2 SH2 domain. As to the kind of experiment: Fluorescence polarization solution binding. Conditions: Rhodamine B-labeled peptide, GST-SH2, Beacon 2000, read-out: Affinity (KD).
From the text: as §1, §2, §3

The target of test [4] is T4, CrkL SH2 domain. As to the kind of experiment: Fluorescence polarization solution binding. Conditions: Rhodamine B-labeled peptide, GST-SH2, Beacon 2000, read-out: Affinity (KD).
From the text: as §1, §2, §3

Another test concerns the target T5, Ptpn11_N SH2 domain (Homo sapiens, UniProt Q06124).
T5 sequence (Q06124 6-102 limits assumed): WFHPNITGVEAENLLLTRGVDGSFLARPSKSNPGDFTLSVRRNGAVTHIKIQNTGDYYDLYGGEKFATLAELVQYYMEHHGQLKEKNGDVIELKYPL
As to the kind of experiment: Fluorescence polarization solution binding. The following applies: Rhodamine B-labeled peptide, GST-SH2, Beacon 2000, read-out: Affinity (KD).
From the text: as §1, §2, §3

For test [5], the target named is T6, Crk SH2 domain (Homo sapiens, UniProt P46108). As to the kind of experiment: Fluorescence polarization solution binding. The following applies: Rhodamine B-labeled peptide, GST-SH2, Beacon 2000, read-out: Affinity (KD).
T6 sequence (P46108 13-118 limits assumed): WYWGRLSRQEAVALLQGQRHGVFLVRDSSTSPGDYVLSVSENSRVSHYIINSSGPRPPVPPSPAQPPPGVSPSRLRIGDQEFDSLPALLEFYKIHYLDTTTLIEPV
From the text: as §1, §2, §3

For another test, the target named is Plcg2_C SH2 domain (Homo sapiens, UniProt P16885). As to the kind of experiment: Fluorescence polarization solution binding. The following applies: Rhodamine B-labeled peptide, GST-SH2, Beacon 2000, read-out: Affinity (KD).
Chain of Plcg2_C SH2 domain (P16885 646-735 limits assumed): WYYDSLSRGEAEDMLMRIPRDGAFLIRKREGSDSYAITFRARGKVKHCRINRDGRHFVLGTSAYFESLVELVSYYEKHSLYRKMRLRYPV
From the text: as §1
As noted above, this study performs well in terms of reproducing the literature reported interactions between the 50 SH2 domains tested and the 13 proteins represented on the addressable arrays (Table 1). A handful of differences with literature-reported interactions must, by necessity, be reconciled. Our assumption is that a high-throughput (HTP) study such as this one should capture upwards of 85% of known (literature reported) interactions and that results that differ from low throughput studies described in the literature should be subject to further testing to identify the nature of the discrepancy and reveal any weakness in the HTP dataset. […] For instance, FGFR1 Y-766 (SNQEpYLDLSMP) is reported to bind to PLCγ1 in a pTyr dependant manner based on mutational analysis of FGFR1 [55, 56]. […] This may imply that either this is a binding event specific to PLCγ1 (and not PLCγ2), or that the interaction reported at the level of the full-length protein may be more complex, perhaps requiring secondary contact sites that are not available within the context of the short peptide used in the current study. […] We have made an effort to limit false negatives to those of lower affinity, and we are aware of no instance in our dataset of a sub-micromolar affinity interaction being scored as array-negative.
Peptides were synthesized using FMOC-chemistry onto pre-loaded tenta-gel resins. […] Dissociation constants were measured using the Beacon 2000 (Invitrogen) as previously described.
Binding Affinities determined by Fluorescence Polarization. […] Fluorescence polarization measurements were read on a Beacon 2000 (Invitrogen). […]

The next test concerns the target PI3K1_C SH2 domain (Homo sapiens, UniProt P27986). Put plainly: Fluorescence polarization solution binding. The following applies: Rhodamine B-labeled peptide, GST-SH2, Beacon 2000, read-out: Affinity (KD).
From the text: as §1, §2, §3

For the next test, the target named is T7, Rasa1_C SH2 domain (Homo sapiens, UniProt P20936).
T7 sequence (P20936 351-441 limits assumed): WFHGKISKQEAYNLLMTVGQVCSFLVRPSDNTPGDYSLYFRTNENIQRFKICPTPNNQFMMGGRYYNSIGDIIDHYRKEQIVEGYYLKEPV
As to the kind of experiment: Fluorescence polarization solution binding. The following applies: Rhodamine B-labeled peptide, GST-SH2, Beacon 2000, read-out: Affinity (KD).

A further test addresses Rasa1_N SH2 domain (Homo sapiens, UniProt P20936). Put plainly: Fluorescence polarization solution binding. Conditions: Rhodamine B-labeled peptide, GST-SH2, Beacon 2000, read-out: Affinity (KD).
Test [6] addresses Gads SH2 domain. Set-up: method as in earlier work. Conditions: SH2 protein microarray; N.B. = non binding; read-out: Protein Microarray (Macbeath) – KD; cited from earlier work.
Test [7] relates to Gads SH2 domain. Put plainly: SPOT peptide array. Type of test: binding. Conditions: spot intensity as factor of array mean; GST-SH2 0.25 μM. Put shortly: (§4)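 Peptides were synthesized by SPOT on cellulose as 11-mers with the phosphotyrosine fifth, about 5 nmol each. GST–SH2 domain fusions were then incubated on the arrays and visualized via anti-GST and near-infrared secondary antibodies. Peptides binding GST alone above mean in two of three trials were flagged nonspecific.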

For test [8], the target named is T6, Crk SH2 domain. Put plainly: SPOT peptide array. The test is classed as binding. Conditions: spot intensity as factor of array mean; GST-SH2 0.25 μM. The essentials:
as §4

Chain of PI3K1_N SH2 domain (P27986 333-428 limits assumed): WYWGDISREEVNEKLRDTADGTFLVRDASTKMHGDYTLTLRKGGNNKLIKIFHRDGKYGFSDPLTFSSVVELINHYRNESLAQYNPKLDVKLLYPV
T1 sequence (P62993 60-152 limits assumed): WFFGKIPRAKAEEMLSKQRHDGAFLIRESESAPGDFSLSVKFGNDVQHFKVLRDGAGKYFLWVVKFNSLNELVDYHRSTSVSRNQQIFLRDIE
Chain of PI3K1_C SH2 domain (P27986 624-718 limits assumed): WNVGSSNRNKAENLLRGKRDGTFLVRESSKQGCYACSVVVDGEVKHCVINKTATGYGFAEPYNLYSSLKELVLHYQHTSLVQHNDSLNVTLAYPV
Chain of Rasa1_N SH2 domain (P20936 181-272 limits assumed): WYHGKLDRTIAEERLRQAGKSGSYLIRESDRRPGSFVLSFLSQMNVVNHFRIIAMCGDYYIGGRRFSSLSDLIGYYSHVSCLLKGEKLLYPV

Turning to “QARRPPGLEpYCYNPSHND* (QARRPPGLEYCYNPSHND) [FGFR1 Y583 phosphopeptide; Cys replaced with Ala or Ser on peptide arrays]”, the Kd is 1.62 µM with Grb2 SH2 domain [1], 0.34 µM with Abl2 SH2 domain, 1.8 µM with Abl1 SH2 domain and 1.55 µM with CrkL SH2 domain [2].

As to `CC[C@H](C)[C@H](NC(=O)[C@H](Cc1ccc(OP(=O)(O)O)cc1)NC(=O)[C@H](CC(N)=O)NC(=O)[C@H](CC(C)C)NC(=O)CNC(=O)[C@@H](N)CC(N)=O)C(=O)N[C@@H](CC(=O)O)C(=O)N[C@@H](CC(C)C)C(=O)N[C@@H](CC(=O)O)C(=O)N[C@@H](CC(C)C)C(=O)N[C@H](C(=O)O)C(C)C` [NGLNpYIDLDLV], the Kd on PI3K1_N SH2 domain was 15 µM; on Grb2 SH2 domain [3], above 50 µM; on CrkL SH2 domain [4], above 50 µM.

Turning to `CC[C@H](C)[C@H](NC(=O)[C@H](CC(N)=O)NC(=O)[C@@H](NC(=O)[C@H](Cc1ccc(OP(=O)(O)O)cc1)NC(=O)[C@H](CCC(=O)O)NC(=O)CNC(=O)[C@@H]1CCCN1C(=O)[C@@H](N)CO)C(C)C)C(=O)N[C@@H](CCC(=O)O)C(=O)N[C@@H](Cc1ccccc1)C(=O)NCC(=O)O` [SPGEpYVNIEFG], the equilibrium dissociation constant (Kd) was 2.68 µM on PI3K1_N SH2 domain, 2.08 µM on Ptpn11_N SH2 domain, above 20 µM on Crk SH2 domain [5] and 2.92 µM on Plcg2_C SH2 domain.

On to `CC(C)C[C@H](NC(=O)[C@H](CCC(=O)O)NC(=O)[C@H](Cc1ccc(OP(=O)(O)O)cc1)NC(=O)CNC(=O)[C@H](CCC(=O)O)NC(=O)[C@H](CCC(=O)O)NC(=O)[C@@H](N)CCCCN)C(=O)N1CCC[C@H]1C(=O)N[C@@H](Cc1ccc(O)cc1)C(=O)N[C@@H](CC(N)=O)C(=O)N1CCC[C@H]1C(=O)O` [KEEGpYELPYNP], for which the Kd was 1.85 µM on PI3K1_N SH2 domain; above 50 µM on Ptpn11_N SH2 domain; 13 µM on PI3K1_C SH2 domain; 1.39 µM on Rasa1_C SH2 domain; 0.41 µM on Rasa1_N SH2 domain.

In the case of ARDIHHIDYpYKKTTNGRD, the Kd at Gads SH2 domain [6] is 1.01 µM. The “Peptide array intensity (X mean)” value in the test on Gads SH2 domain [7] and on Crk SH2 domain [8] was below 2x X Mean each time.

One may read the Kd as the free concentration of one partner at which half of the binding sites on the other are occupied at equilibrium, for simple one-to-one binding.

Values taken from article PMC3514216, “SRC Homology 2 Domain Binding Sites in Insulin, IGF-1 and FGF receptor mediated signaling networks reveal an extensive potential interactome” (Cell Communication and Signaling : CCS, 2012).
